Laboratory results taken from patent US8080529B2, “Macrolides with anti-inflammatory activity” (Glaxo Group Limited, priority 2005, dated 2011).
Where two headings read alike, the source gives them in different places.

How the values were obtained:
Type in all cases: cell-based
[1] = system: IL-1α; assay: Inhibition of IL-1 production by stimulated human peripheral blood leukocytes in vitro; conditions: for inhibition at 10 µM / inhibition at 50 µM: Homo sapiens, Leukocyte, read-out: Percentage of inhibition of IL-1α production
[2] = system: IL-6; assay: Inhibition of IL-6 production by stimulated human peripheral blood leukocytes in vitro; conditions: for inhibition at 10 µM / inhibition at 50 µM: Homo sapiens, Leukocyte, read-out: Percentage of inhibition of IL-6 production
Experimental: (§1) Test substances used in in vitro experiments were dissolved in dimethyl sulfoxide (DMSO) (Kemika, Croatia) at concentrations of 50 mM and 10 mM, and were further diluted to final concentrations of 50 μM and 10 μM in 1 mL Dulbecco's modified Eagle medium (DMEM) supplemented with 1% heat inactivated fetal bovine serum (FBS), 1% L-glutamine, 50 U/ml penicillin, 50 μg/ml streptomycin and 2.5 μg/mL Fungizone (amphotericin B). Media and all media supplements were purchased from Gibco, Australia, except the FBS was purchased from Sigma, USA.
(§2) Peripheral blood leukocytes (PBL) were obtained from venous blood of healthy volunteers by sedimentation on 2% dextran T-500 (Amersham Biosciences, USA) and subsequent centrifugations of leukocyte rich plasma.
(§3) Peripheral blood leukocytes (PBL), isolated as described above, were seeded in a 48-well plate at a concentration of 3 to 5×10^6 cell per well in culture medium consisting of RPMI 1640 medium (Institute of Immunology, Croatia) supplemented with 10% heat-inactivated fetal calf serum (FCS, Biowhittaker, USA), 100 U/ml penicillin (Gibco, Australia), 100 μg/ml streptomycin (Gibco, Australia) and 2 mM L-glutamine (Gibco, Australia), and preincubated with the test compounds for 2 h at 37° C., in an atmosphere of 5% CO2, and 90% humidity. Then, stimuli (Sigma, USA) were added to a final concentration of 2 μg/mL lipopolysaccharide (LPS), 1 μg/mL phorbol 12-myristate 13-acetate (PMA) or 120 μg/mL zymosan. Samples were incubated overnight under conditions described above. At the end of incubation, the supernatants were transferred to eppendorf tubes and centrifuged for 10 min at 1500×g. Concentrations of human TNF-α, IL-1β, IL-6 and IL-8 were determined in cell supernatants by sandwich ELISA, using capture and detection antibodies (R&D Systems, Minneapolis, Minn.) according to the manufacturer's recommendations.
(§4) Inhibition (as percentage) was calculated using the following formula: % inhibition=(1−concentration of cytokines in sample/concentration of cytokines in positive control)×100.
(§5) The positive control refers to LPS-, PMA- or zymosan-stimulated samples that were not preincubated with test compounds.

[3] = system: TNF-α; assay: Inhibition of TNF-α production by stimulated human peripheral blood leukocytes in vitro; conditions: for inhibition at 10 µM / inhibition at 50 µM: Homo sapiens, Leukocyte, read-out: Percentage of inhibition of TNF-α production
Experimental: as §1, §2, §3, §4, §5

[4] = system: IL-8; assay: Inhibition of IL-8 production by stimulated human peripheral blood leukocytes in vitro; conditions: for inhibition at 10 µM / inhibition at 50 µM: Homo sapiens, Leukocyte, read-out: Percentage of inhibition of IL-8 production
Experimental: as §1, §2, §3, §4, §5

SMILES: CC[C@H]1OC(=O)[C@H](C)[C@@H](O[C@H]2C[C@@](C)(OC)C(OC(=O)CCN(CC)CC)[C@H](C)O2)[C@H](C)[C@@H](O[C@@H]2O[C@H](C)C[C@H](NC)[C@H]2O)[C@](C)(O)C[C@@H](C)CN(C)[C@H](C)[C@@H](O)[C@]1(C)O (stereo partly drawn) [Example 90, 3′-N-Demethyl-4″-O-(3-diethylaminopropionyl)-azithromycin]
- inhibition at 10 µM ([1]; 10 μM, LPS-stimulated PBL): 62%
- inhibition at 10 µM ([1]; 10 μM, PMA-stimulated PBL): 61%
- inhibition at 10 µM ([1]; 10 μM, zymosan-stimulated PBL): 82%
- inhibition at 50 µM ([1]; 50 μM, LPS-stimulated PBL): 91%
- inhibition at 50 µM ([1]; 50 μM, PMA-stimulated PBL): 57%
- inhibition at 50 µM ([1]; 50 μM, zymosan-stimulated PBL): 100%
- inhibition at 10 µM ([2]; 10 μM, LPS-stimulated PBL): 67%
- inhibition at 10 µM ([2]; 10 μM, PMA-stimulated PBL): 46%
- inhibition at 10 µM ([2]; 10 μM, zymosan-stimulated PBL): 60%
- inhibition at 50 µM ([2]; 50 μM, LPS-stimulated PBL): 88%
- inhibition at 50 µM ([2]; 50 μM, PMA-stimulated PBL): 90%
- inhibition at 50 µM ([2]; 50 μM, zymosan-stimulated PBL): 100%
- inhibition at 10 µM ([3]; 10 μM, LPS-stimulated PBL): 78%
- inhibition at 10 µM ([3]; 10 μM, PMA-stimulated PBL): 40%
- inhibition at 10 µM ([3]; 10 μM, zymosan-stimulated PBL): 53%
- inhibition at 50 µM ([3]; 50 μM, LPS-stimulated PBL): 100%
- inhibition at 50 µM ([3]; 50 μM, PMA-stimulated PBL): 95%
- inhibition at 50 µM ([3]; 50 μM, zymosan-stimulated PBL): 94%
- inhibition at 10 µM ([4]; 10 μM, LPS-stimulated PBL): 4%
- inhibition at 10 µM ([4]; 10 μM, PMA-stimulated PBL): 0%
- inhibition at 10 µM ([4]; 10 μM, zymosan-stimulated PBL): 24%
- inhibition at 50 µM ([4]; 50 μM, LPS-stimulated PBL): 38%
- inhibition at 50 µM ([4]; 50 μM, PMA-stimulated PBL): 53%
- inhibition at 50 µM ([4]; 50 μM, zymosan-stimulated PBL): 88%

SMILES: CC[C@H]1OC(=O)[C@H](C)[C@@H](O[C@H]2C[C@@](C)(OC)[C@@H](OCCCN(CC)CC)[C@H](C)O2)[C@H](C)[C@@H](O[C@@H]2O[C@H](C)C[C@H](N(C)C)[C@H]2O)[C@](C)(O)C[C@@H](C)CN(C)[C@H](C)[C@H]2OC(=O)O[C@@]21C [Example 95, 4″-O-(3-diethylamino-propyl)-azithromycin 11,12-cyclic carbonate]
- Percentage of inhibition of IL-1α production ([1]; 10 μM, LPS-stimulated PBL): 0%
- Percentage of inhibition of IL-1α production ([1]; 10 μM, PMA-stimulated PBL): 25%
- Percentage of inhibition of IL-1α production ([1]; 10 μM, zymosan-stimulated PBL): 38%
- Percentage of inhibition of IL-1α production ([1]; 50 μM, LPS-stimulated PBL): 0%
- Percentage of inhibition of IL-1α production ([1]; 50 μM, PMA-stimulated PBL): 75%
- Percentage of inhibition of IL-1α production ([1]; 50 μM, zymosan-stimulated PBL): 42%
- Percentage of inhibition of IL-6 production ([2]; 10 μM, LPS-stimulated PBL): 1%
- Percentage of inhibition of IL-6 production ([2]; 10 μM, PMA-stimulated PBL): 17%
- Percentage of inhibition of IL-6 production ([2]; 10 μM, zymosan-stimulated PBL): 18%
- Percentage of inhibition of IL-6 production ([2]; 50 μM, LPS-stimulated PBL): 8%
- Percentage of inhibition of IL-6 production ([2]; 50 μM, PMA-stimulated PBL): 56%
- Percentage of inhibition of IL-6 production ([2]; 50 μM, zymosan-stimulated PBL): 58%
- Percentage of inhibition of TNF-α production ([3]; 10 μM, LPS-stimulated PBL): 12%
- Percentage of inhibition of TNF-α production ([3]; 10 μM, PMA-stimulated PBL): 34%
- Percentage of inhibition of TNF-α production ([3]; 10 μM, zymosan-stimulated PBL): 47%
- Percentage of inhibition of TNF-α production ([3]; 50 μM, LPS-stimulated PBL): 30%
- Percentage of inhibition of TNF-α production ([3]; 50 μM, PMA-stimulated PBL): 50%
- Percentage of inhibition of TNF-α production ([3]; 50 μM, zymosan-stimulated PBL): 63%
- Percentage of inhibition of IL-8 production ([4]; 10 μM, LPS-stimulated PBL): 0%
- Percentage of inhibition of IL-8 production ([4]; 10 μM, PMA-stimulated PBL): 0%
- Percentage of inhibition of IL-8 production ([4]; 10 μM, zymosan-stimulated PBL): 5%
- Percentage of inhibition of IL-8 production ([4]; 50 μM, LPS-stimulated PBL): 16%
- Percentage of inhibition of IL-8 production ([4]; 50 μM, PMA-stimulated PBL): 21%
- Percentage of inhibition of IL-8 production ([4]; 50 μM, zymosan-stimulated PBL): 33%

SMILES: CC[C@H]1OC(=O)[C@H](C)[C@@H](O[C@H]2C[C@@](C)(OC)[C@@H](OCCCN(CC)CC)[C@H](C)O2)[C@H](C)[C@@H](O[C@@H]2O[C@H](C)C[C@H](N(C)C)[C@H]2O)[C@](C)(O)C[C@@H](C)CN(C)[C@H](C)[C@@H](O)[C@]1(C)O [Example 96, 4″-O-(3-diethylamino-propyl)-azithromycin]
- inhibition at 10 µM ([1]; 10 μM, LPS-stimulated PBL): 0%
- inhibition at 10 µM ([1]; 10 μM, PMA-stimulated PBL): 32%
- inhibition at 10 µM ([1]; 10 μM, zymosan-stimulated PBL): 36%
- inhibition at 50 µM ([1]; 50 μM, LPS-stimulated PBL): 0%
- inhibition at 50 µM ([1]; 50 μM, PMA-stimulated PBL): 81%
- inhibition at 50 µM ([1]; 50 μM, zymosan-stimulated PBL): 88%
- inhibition at 10 µM ([2]; 10 μM, LPS-stimulated PBL): 0%
- inhibition at 10 µM ([2]; 10 μM, PMA-stimulated PBL): 27%
- inhibition at 10 µM ([2]; 10 μM, zymosan-stimulated PBL): 17%
- inhibition at 50 µM ([2]; 50 μM, LPS-stimulated PBL): 3%
- inhibition at 50 µM ([2]; 50 μM, PMA-stimulated PBL): 64%
- inhibition at 50 µM ([2]; 50 μM, zymosan-stimulated PBL): 76%
- inhibition at 10 µM ([3]; 10 μM, LPS-stimulated PBL): 3%
- inhibition at 10 µM ([3]; 10 μM, PMA-stimulated PBL): 14%
- inhibition at 10 µM ([3]; 10 μM, zymosan-stimulated PBL): 21%
- inhibition at 50 µM ([3]; 50 μM, LPS-stimulated PBL): 13%
- inhibition at 50 µM ([3]; 50 μM, PMA-stimulated PBL): 48%
- inhibition at 50 µM ([3]; 50 μM, zymosan-stimulated PBL): 61%
- inhibition at 10 µM ([4]; 10 μM, LPS-stimulated PBL): 0%
- inhibition at 10 µM ([4]; 10 μM, PMA-stimulated PBL): 0%
- inhibition at 10 µM ([4]; 10 μM, zymosan-stimulated PBL): 6%
- inhibition at 50 µM ([4]; 50 μM, LPS-stimulated PBL): 17%
- inhibition at 50 µM ([4]; 50 μM, PMA-stimulated PBL): 12%
- inhibition at 50 µM ([4]; 50 μM, zymosan-stimulated PBL): 40%
